Assay results taken from patent US20260217983A1, “SULFONIUM SALT PHOTOINITIATORS AND METHODS OF LED CURING A COMPOSITION WITH SAID SULFONIUM SALT PHOTOINITIATORS” (ARKEMA FRANCE, priority 2022, published 2026).
“Also recorded” adds a separate entry of the source.

Assays:
[1] = Transmittance at 0.01% w/v in propylene carbonate; format: physicochemical
Protocol: The samples were prepared at 0.01% w/v in propylene carbonate.

[2] = Belt curing performance (thumb-twist depth cure) in hybrid acrylate/epoxy resin; details: 24 μm film, under air, PI 2 wt %
Protocol: (§1) The photoinitiators were dissolved either in neat UViCure S105E resin or a hybrid acrylate/epoxy resin (prepared by mixing 60 wt parts UViCure S105E, 15 wt parts UViCure S130 and 25 wt parts SR492; all product are available from Sartomer). Formulations were prepared by combining all materials in the given proportions and then stirring at 30-40° C. until the samples were fully homogeneous; the formulations were then allowed to cool to room temperature. For all experiments, the formulations were cured on Leneta Form 3N-31 gloss finish paper at 6 μm and 24 μm film thickness using a belt-cure instrument; the films were prepared using a K-bar. All films were then cured under an LED lamp at a given belt speed. ‘Depth cure’ for each formulation was assessed using the ‘thumb-twist’ test (where no visible mark is made when a thumb is pressed down firmly onto the coating with a twisting motion), and from the belt speed; the calculated cure speed (in m/min) is given.

[3] = 3D printability in hybrid system on 405 nm DLP printers; details: hybrid formulations of Table 23
[4] = Solubility in propylene carbonate at ambient temperature; format: physicochemical; details: 20-25° C.
Protocol: Solubility of selected sulfonium salts in propylene carbonate at ambient temperature (20-25° C.) was determined.

[5] = Belt curing performance (thumb-twist depth cure) in UViCure S105E resin; details: 24 μm film, under air, PI 2 wt %
Protocol: as §1

[6] = UV Vis spectra measurement; format: physicochemical; details: 10 ppm in acetonitrile
Text: UV-Vis spectrum of each sample was taken with a Shimadzu UV1800 spectrophotometer using a 1.0 cm path of cuvette quartz cell in accordance with ASTM E169-04, and scanning the spectrum over the wavelength range of 450 to 200 nm.

[7] = FTIR-ATR cure test of cationic formulations (epoxide, oxetane conversion, 1100 cm^-1 peak growth); details: 405 nm, cationic systems
Protocol: Matrixes: In a 1000 mL of metal can, formulation matrix was charged according to the percentage in Table 12. The 1000-1005 g mixture of each matrix sample was prepared and mixed by mechanical mixer for about 1 hour around 60° C. until the solution became clear. Formulations: In a white max 50 jar from FlackTek Inc., photoinitiator and propylene carbonate were loaded at first, mixed by hand with stainless steel spatula, placed in 60° C. oven for about 1 h, mixed again until it became clear. Then, formulation matrix was charged according to the percentage in one of Table 13 to 21. The […]-52.60 g mixture of each sample was prepared and mixed for 3 minutes at 3000 RPM in Speed Mixer from FleackTec Inc. Then, all jars were placed in 60° C. oven for about 2 h, taken out and immediately mixed for another 2 minutes until the solution became clear.
A Fourier Transform Infrared (FTIR) with an Attenuated Total Reflection (ATR) setup was used. All polymerization rate measurements were performed using Nicolet iS50 FT-IR Spectrometer from Thermo Scientific, equipped with a standard DLaTGS detector. A lamp holder for the ART platform of FTIR unit can be customized and printed from Arkema N3xtDimention® engineered resin N3D-TOUGH784 in order to ensure precisely fit of a 365 nm lamp Accucure ULM-2-365 or a 405 nm lamp Accucure ULM-2-405 from Digital Light Labs. On the bottom of this lamp holder, a dry air channel is built in to allow air uniformly blowing over sample surface, the gas flow rate can be controlled over a rotameter. The LED light was manually triggered by Ultraviolet illumination & Measurement System. LED light exposure can be programed by AccuCure software. For measurement, 25 μL of liquid sample was placed in the center of an ATR crystal. 3 mil of thin film was prepared by a customized coating applicator (3 mil WFM, G1046 from BYK). The LED lamp with holder was place on the top of ART platform. Then FTIR scan was initiated to collect liquid IR spectrum at first. Each IR spectrum of a specific exposure time at 10 mW/cm^2 of LED light were collected. Measurements of acrylate conversion were taken at the peak height under the reference peak around 1727 cm^−1; the acrylate peak of SR833S at approximately 1407 cm^−1, the epoxide peak of UviCure S105 at approximately 790 cm^−1, and the oxetane peak of UViCure S130 at approximately 970 cm^−1 were also measured. Since the ring opening of both epoxide and oxetane generated C—O—C bond, the growth of C—O—C IR peak height at ~1100 cm^−1 was monitored as well. The resulting of peak 1100 cm^−1 growth rate could be calculated to assess total cationic cure speed. Peak heights were determined using the same baseline where a baseline is chosen to be the two lowest points between 600 cm^−1 and 1800 cm^−1. The peak height under the peak and above the baseline was then determined. The integration limits for liquid and the cured sample are not identical but are similar, especially for the reference peak.
The ratios of the acrylate peak height, epoxide peak height, ring opening peak height from both epoxide and oxetane to the reference peak height were determined for both the liquid and the cured samples. Degree of cure or conversion or peak growth rate, expressed as percentage reacted acrylate or epoxide or ring opening of both epoxide and oxetane, was calculated from the equation below: […]
Where Rliq is the peak height ratio of the liquid sample and Rc is the peak height ratio of the LED cured sample. The resulting acrylate and epoxide conversions or C—O—C growth rates were collected and listed in Tables 13 to 21, plotted in FIG. 1 to 8 and FIG. 10.

[8] = LED 365 nm, 100% intensity (=70.1 mJ/cm^2), belt speed 40 m/min

For CC(C)c1ccc2c(c1)c(=O)c1ccccc1[s+]2-c1ccc(-c2ccccc2)cc1 (centres unmarked) [Omnicat 550, 10-[1,1′-Biphenyl]-4-yl-2-(1-methylethyl)-9-oxo-9H-thioxanthenium hexafluorophosphate, reference compound], which “% Transmittance at 355 nm” value [1] is on record?
The value was 86.8%.

What about the “% Transmittance at 420 nm” value [1] of the same compound?
The value was 99.1%.

What about the “Cure speed in hybrid acrylate/epoxy resin” value [2, 8] of the same compound?
Its value is 5.7 m/min.

And the “Cure speed in hybrid acrylate/epoxy resin” value ([2]; LED 395 nm, 80 m/min, 50% intensity (=36.9 mJ/cm^2))?
Its value is 10.5 m/min.

And the “printability on 405 nm DLP printers” value [3]?
The value was “not printable even with over exposure time”.

And the “Solubility in propylene carbonate” value [4]?
The value was 25 wt %.

And the “Cure speed in UViCure S105E resin” value [5, 8]?
Its value is 5.0 m/min.

And the “Cure speed in UViCure S105E resin” value ([5]; LED 395 nm, 40 m/min, 100% intensity (=164.5 mJ/cm^2))?
Its value is 8.0 m/min.

Which “UV absorption over 310 nm wavelength” value [6] does the source give for CC(C)(C)c1ccc([I+]c2ccc(C(C)(C)C)cc2)cc1 [Speedcure 938, Bis (4-tert-butylphenyl) iodonium hexafluorophosphate, reference compound] here?
Its value is “did not have any absorption at all”.

Which “effect of radical photoinitiator on cationic photopolymerization” value [7] does the source give for COC(OC)(C(=O)c1ccccc1)c1ccccc1 [Speedcure BKL, 2,2-dimethoxy-1,2-diphenylethan-1-one, reference compound] here?
The value was “Neither radical photoinitiator BKL nor TPO-L could promote cationic photopolymerization”.

Which “effect of radical photoinitiator on cationic photopolymerization” value [7] does the source give for CCOP(=O)(C(=O)c1c(C)cc(C)cc1C)c1ccccc1 (centres unmarked) [Speedcure TPO-L, Ethyl(2,4,6-trimethylbenzoyl)phenyl phosphinate, reference compound] here?
Its value is “Neither radical photoinitiator BKL nor TPO-L could promote cationic photopolymerization; also recorded: slowed down the most”.
